Data published in patent US20040142821A1, “Pesticide composition comprising malononitrile compounds” (priority 2001, published 2004).

Tested on: Diabrotica undecimpunctata
Assay: Pesticidal test against Diabrotica undecimpunctata, treated filter paper (Test Example 4)
Type: in vivo, Diabrotica undecimpunctata (southern-corn rootworm)
Conditions: 50 ppm test liquid (Formulation Example 1), 1 ml on filter paper; 30 to 50 eggs and one germinated corn seed; 25° C.
Procedure: One germinated seed of corn and 30 to 50 eggs of Diabrotica undecimpunctata (southern-corn rootworm) was placed on the filter paper in the polyethylene cup, which was then kept covered and left in a room at 25° C. On the 6th day after, the number of surviving larvae of Diabrotica undecimpunctata was examined.

Compound | number of surviving pests on the 6th day after
C=CCC(C#N)(C#N)Cc1ccc(Cl)cc1 [Compound 1, 2-allyl-2-(4-chlorobenzyl)malononitrile] | 0
C=CCC(C#N)(C#N)C(C)(C)c1ccc(Cl)cc1 [Compound 2, 2-allyl-2-(1-(4-chlorophenyl)-1-methylethyl)malononitrile] | 0
C=CCC(C#N)(C#N)C(c1ccc(Cl)cc1)C(C)C (stereo not drawn) [Compound 3, 2-allyl-2-(1-(4-chlorophenyl)-2-methylpropyl)malononitrile] | 0
C=CCCC(C#N)(C#N)Cc1ccc(Cl)cc1 [Compound 4, 2-(3-butenyl)-2-(4-chlorobenzyl)malononitrile] | 0
C=CCC(C#N)(C#N)Cc1ccc(C(F)(F)F)cc1 [Compound 5, 2-allyl-2-(4-(trifluoromethyl)benzyl)malononitrile] | 0
N#CC(C#N)(Cc1ccc(Cl)cc1)C1CCCCC1 [Compound 9, 2-(4-chlorobenzyl)-2-cyclohexylmalononitrile] | 0
C=CCCC(C#N)(C#N)C(C)c1ccc(Cl)cc1 (stereo not drawn) [Compound 10, 2-(3-butenyl)-2-(1-(4-chlorophenyl)ethyl)malononitrile] | 0
C=CCC(C#N)(C#N)Cc1ccc(OC(F)(F)F)cc1 [Compound 11, 2-allyl-2-(4-(trifluoromethoxy)benzyl)malononitrile] | 0
C=CCCC(C#N)(C#N)C(C)c1ccc(OC(F)(F)F)cc1 (stereo not drawn) [Compound 16, 2-(3-butenyl)-2-(1-(4-(trifluoromethoxy)phenyl)ethyl)malononitrile] | 0
C=CCC(C#N)(C#N)Cc1ccc(Cl)c(Cl)c1 [Compound 23, 2-allyl-2-(3,4-dichlorobenzyl)malononitrile] | 0
C=CCC(C#N)(C#N)C(c1cccc(Cl)c1)C(C)C (stereo not drawn) [Compound 66, 2-allyl-2-(1-(3-chlorophenyl)-2-methylpropyl)malononitrile] | 0
C=CCC(C#N)(C#N)C(C)c1ccc(Cl)cc1 (stereo not drawn) [Compound 74, 2-allyl-2-(1-(4-chlorophenyl)ethyl)malononitrile] | 0

Tested on: not given
Assay: not given
Conditions: not given

melting point [°C] | Compound
70.9 | CCC(C#N)(C#N)Cc1ccc(Cl)cc1
81.9 | C=CCC(C#N)(C#N)Cc1ccc(C#N)cc1 [Compound 14, 2-allyl-2-(4-cyanobenzyl)malononitrile]
94.2 | C=CCC(C#N)(C#N)Cc1ccc([N+](=O)[O-])cc1 [Compound 50, 2-allyl-2-(4-nitrobenzyl)malononitrile]
78.2 | C=CCC(C#N)(C#N)Cc1c(F)c(F)c(F)c(F)c1F [Compound 62, 2-allyl-2-(2,3,4,5,6-pentafluorobenzyl)malononitrile]
44.8 | CC/C=C\CCC(C#N)(C#N)Cc1ccc(Cl)cc1 [Compound 73, 2-(4-chlorobenzyl)-2-((Z)-3-hexenyl)malononitrile]
74.5 | C=CCC(C#N)(C#N)Cc1ccc(C)cc1 [Compound 77, 2-allyl-2-(4-methylbenzyl)malononitrile]

Tested on: Musca domestics
Assay: Pesticidal test against Musca domestics, treated filter paper with sucrose bait (Test Example 5)
Type: in vivo
Conditions: 500 ppm test liquid (Formulation Example 5), 0.7 ml on filter paper, ten female adults, after 24 hours
Procedure: Ten female adults of Musca domestics (house fly) were set free in the polyethylene cup, which was then kept covered. After 24 hours, their survival was examined to determine the mortality.

Compound | mortality at 500 ppm [%]
C=CCC(C#N)(C#N)Cc1ccc(Cl)cc1 [Compound 1, 2-allyl-2-(4-chlorobenzyl)malononitrile] | 100
C=CCC(C#N)(C#N)C(c1ccc(Cl)cc1)C(C)C (stereo not drawn) [Compound 3, 2-allyl-2-(1-(4-chlorophenyl)-2-methylpropyl)malononitrile] | 100
C=CCCC(C#N)(C#N)Cc1ccc(Cl)cc1 [Compound 4, 2-(3-butenyl)-2-(4-chlorobenzyl)malononitrile] | 100
C=CCCC(C#N)(C#N)C(C)c1ccc(Cl)cc1 (stereo not drawn) [Compound 10, 2-(3-butenyl)-2-(1-(4-chlorophenyl)ethyl)malononitrile] | 100
C=CCC(C#N)(C#N)Cc1ccc(OC(F)(F)F)cc1 [Compound 11, 2-allyl-2-(4-(trifluoromethoxy)benzyl)malononitrile] | 100
C=CCC(C#N)(C#N)C(c1cccc(Cl)c1)C(C)C (stereo not drawn) [Compound 66, 2-allyl-2-(1-(3-chlorophenyl)-2-methylpropyl)malononitrile] | 100
C=CCC(C#N)(C#N)C(C)c1ccc(Cl)cc1 (stereo not drawn) [Compound 74, 2-allyl-2-(1-(4-chlorophenyl)ethyl)malononitrile] | 100

Tested on: German cockroach
Assay: Pesticidal test against German cockroach, treated filter paper with sucrose bait (Test Example 6)
Type: in vivo
Conditions: Blattella germanica, 144 h; 500 ppm test liquid (Formulation Example 5), 0.7 ml on filter paper; two male adults; after 6 days
Description: Two male adults of German cockroach (Blattalla germanica) were set free in the polyethylene cup, which was then kept covered. After 6 days, their survival was examined to determine the mortality.

Compound | mortality at 500 ppm [%]
C=CCC(C#N)(C#N)Cc1ccc(Cl)cc1 [Compound 1, 2-allyl-2-(4-chlorobenzyl)malononitrile] | 100
C=CCC(C#N)(C#N)C(C)(C)c1ccc(Cl)cc1 [Compound 2, 2-allyl-2-(1-(4-chlorophenyl)-1-methylethyl)malononitrile] | 100
C=CCC(C#N)(C#N)C(c1ccc(Cl)cc1)C(C)C (stereo not drawn) [Compound 3, 2-allyl-2-(1-(4-chlorophenyl)-2-methylpropyl)malononitrile] | 100
C=CCCC(C#N)(C#N)Cc1ccc(Cl)cc1 [Compound 4, 2-(3-butenyl)-2-(4-chlorobenzyl)malononitrile] | 100
C=CCC(C#N)(C#N)Cc1ccc(C(F)(F)F)cc1 [Compound 5, 2-allyl-2-(4-(trifluoromethyl)benzyl)malononitrile] | 100
N#CC(C#N)(Cc1ccc(Cl)cc1)C1CCCCC1 [Compound 9, 2-(4-chlorobenzyl)-2-cyclohexylmalononitrile] | 100
C=CCCC(C#N)(C#N)C(C)c1ccc(Cl)cc1 (stereo not drawn) [Compound 10, 2-(3-butenyl)-2-(1-(4-chlorophenyl)ethyl)malononitrile] | 100
C=CCC(C#N)(C#N)Cc1ccc(OC(F)(F)F)cc1 [Compound 11, 2-allyl-2-(4-(trifluoromethoxy)benzyl)malononitrile] | 100
C=CCCC(C#N)(C#N)C(C)c1ccc(OC(F)(F)F)cc1 (stereo not drawn) [Compound 16, 2-(3-butenyl)-2-(1-(4-(trifluoromethoxy)phenyl)ethyl)malononitrile] | 100
C=CCC(C#N)(C#N)Cc1ccc(Cl)c(Cl)c1 [Compound 23, 2-allyl-2-(3,4-dichlorobenzyl)malononitrile] | 100
C=CCC(C#N)(C#N)C(C)c1ccc(Cl)cc1 (stereo not drawn) [Compound 74, 2-allyl-2-(1-(4-chlorophenyl)ethyl)malononitrile] | 100

Tested on: Cullex pipiens pallens
Assay: whole plant or invertebrate
Conditions: 24 h
Procedure: In 100 ml of ion-exchanged water, the test liquid had been prepared as described above, was added dropwise in an amount of 0.7 ml (the concentration of active ingredient was 3.5 ppm). Twenty final-instar larvae of Cullex pipiens pallens (common mosquito) were set free in the solution. After 1 days, their survival was examined to determine the mortality.

Compound | mortality at 3.5 µg/mL [%]
C=CCC(C#N)(C#N)Cc1ccc(Cl)cc1 [Compound 1, 2-allyl-2-(4-chlorobenzyl)malononitrile] | 100
C=CCC(C#N)(C#N)C(C)(C)c1ccc(Cl)cc1 [Compound 2, 2-allyl-2-(1-(4-chlorophenyl)-1-methylethyl)malononitrile] | 100
C=CCC(C#N)(C#N)C(c1ccc(Cl)cc1)C(C)C (stereo not drawn) [Compound 3, 2-allyl-2-(1-(4-chlorophenyl)-2-methylpropyl)malononitrile] | 100
C=CCCC(C#N)(C#N)Cc1ccc(Cl)cc1 [Compound 4, 2-(3-butenyl)-2-(4-chlorobenzyl)malononitrile] | 100
C=CCC(C#N)(C#N)Cc1ccc(C(F)(F)F)cc1 [Compound 5, 2-allyl-2-(4-(trifluoromethyl)benzyl)malononitrile] | 100
N#CC(C#N)(Cc1ccc(Cl)cc1)C1CCCCC1 [Compound 9, 2-(4-chlorobenzyl)-2-cyclohexylmalononitrile] | 100
C=CCCC(C#N)(C#N)C(C)c1ccc(Cl)cc1 (stereo not drawn) [Compound 10, 2-(3-butenyl)-2-(1-(4-chlorophenyl)ethyl)malononitrile] | 100
C=CCC(C#N)(C#N)Cc1ccc(OC(F)(F)F)cc1 [Compound 11, 2-allyl-2-(4-(trifluoromethoxy)benzyl)malononitrile] | 100
C=CCCC(C#N)(C#N)C(C)c1ccc(OC(F)(F)F)cc1 (stereo not drawn) [Compound 16, 2-(3-butenyl)-2-(1-(4-(trifluoromethoxy)phenyl)ethyl)malononitrile] | 100
C=CCC(C#N)(C#N)Cc1ccc(Cl)c(Cl)c1 [Compound 23, 2-allyl-2-(3,4-dichlorobenzyl)malononitrile] | 100
C=CCC(C#N)(C#N)C(c1cccc(Cl)c1)C(C)C (stereo not drawn) [Compound 66, 2-allyl-2-(1-(3-chlorophenyl)-2-methylpropyl)malononitrile] | 100
C=CCC(C#N)(C#N)C(C)c1ccc(Cl)cc1 (stereo not drawn) [Compound 74, 2-allyl-2-(1-(4-chlorophenyl)ethyl)malononitrile] | 100
